Reference: patent US9399626B2, “2-thiopyrimidinones” (Pfizer Inc., priority 2011, dated 2016)
Where a name gives a salt, the structure may show the parent alone.

Each compound was assayed against T1, MPO (purified from human polynuclear leukocytes) (Homo sapiens, UniProt P05164) (assay: MPO Amplex Red Activity Assay). Settings: Table 1, 2 μM H2O2, pH 7.4.
T1 construct: purified from human polynuclear leukocytes; purchased Calbiochem/EMD Biosciences; host or cells: human polynuclear leukocytes (natural source)
T1 sequence (P05164 279-745 limits assumed): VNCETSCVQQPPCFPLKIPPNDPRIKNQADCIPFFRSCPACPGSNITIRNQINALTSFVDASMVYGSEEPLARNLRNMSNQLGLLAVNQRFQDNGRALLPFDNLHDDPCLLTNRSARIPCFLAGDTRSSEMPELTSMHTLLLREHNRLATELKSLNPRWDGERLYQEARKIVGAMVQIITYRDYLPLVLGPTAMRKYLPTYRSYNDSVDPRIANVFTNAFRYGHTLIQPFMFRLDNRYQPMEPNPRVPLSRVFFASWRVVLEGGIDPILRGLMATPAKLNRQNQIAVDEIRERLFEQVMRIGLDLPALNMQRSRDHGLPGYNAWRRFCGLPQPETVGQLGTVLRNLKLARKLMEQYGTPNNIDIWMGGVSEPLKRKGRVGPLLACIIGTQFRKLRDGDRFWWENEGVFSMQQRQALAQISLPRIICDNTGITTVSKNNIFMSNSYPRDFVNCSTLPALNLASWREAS
T1 sequence (P05164 165-273 limits assumed): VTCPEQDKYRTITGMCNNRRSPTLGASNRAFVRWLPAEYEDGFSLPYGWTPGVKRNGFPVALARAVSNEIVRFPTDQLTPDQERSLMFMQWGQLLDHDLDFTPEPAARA
Format: biochemical
In short: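 Human leukocyte MPO […] oxidises 30 μM Amplex Red with 2 μM H2O2 in 50 mM NaPi pH 7.4, 150 mM NaCl, 1 mM DTPA, 2% DMSO. Resorufin fluorescence (ex 530/em 580 nm) read every 20 s, minus catalase background. kobs from the first 600 s, corrected for auto-inactivation, fit versus [I] for kinact/KI.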

| SMILES | MPO kinact/Ki |
| --- | --- |
| COCCn1c(-c2cccc3cccnc23)cc(=O)[nH]c1=S [Example 322, 1-(2-methoxyethyl)-6-quinolin-8-yl-2-thioxo-2,3-dihydropyrimidin-4(1H)-one] | 2800 1/s per M |
| COCCn1c(-c2cccc3ncccc23)cc(=O)[nH]c1=S [Example 321, 1-(2-methoxyethyl)-6-quinolin-5-yl-2-thioxo-2,3-dihydropyrimidin-4(1H)-one] | 2480 1/s per M |
| COc1ccc(Cl)cc1-c1cc(=O)[nH]c(=S)n1CCO [Example 64, 6-(5-chloro-2-methoxyphenyl)-1-(2-hydroxyethyl)-2-thioxo-2,3-dihydropyrimidin-4(1H)-one] | 22500 1/s per M |
| COc1cc(OC)c(-c2cc(=O)[nH]c(=S)n2CCCN)cc1Cl [Example 129, 1-(3-aminopropyl)-6-(5-chloro-2,4-dimethoxyphenyl)-2-thioxo-2,3-dihydropyrimidin-4(1H)-one hydrochloride] | 18700 1/s per M |
| COc1ccc(OC)c(-c2cc(=O)[nH]c(=S)n2CCCN=C(N)N)c1 [Example 131, 2-{3-[6-(2,5-dimethoxyphenyl)-4-oxo-2-thioxo-3,4-dihydropyrimidin-1(2H)-yl]propyl} guanidine trifluoroacetate] | 14500 1/s per M |
| COCCn1c(-c2ccc3c(c2)CCO3)cc(=O)[nH]c1=S [Example 308, 6-(2,3-dihydro-1-benzofuran-5-yl)-1-(2-methoxyethyl)-2-thioxo-2,3-dihydropyrimidin-4(1H)-one] | 5340 1/s per M |
| COc1ccc(Cl)cc1-c1cc(=O)[nH]c(=S)n1CC(N)=O [Example 1, 2-(6-(5-Chloro-2-methoxyphenyl)-4-oxo-2-thioxo-3,4-dihydropyrimidin-1(2H)-yl)acetamide] | 11600 1/s per M |
| NCCCn1c(-c2cccc3ncsc23)cc(=O)[nH]c1=S [Example 72, 1-(3-aminopropyl)-6-(1,3-benzothiazol-7-yl)-2-thioxo-2,3-dihydropyrimidin-4(1H)-one trifluoroacetate] | 3580 1/s per M |
| COc1ccc(-c2cc(=O)[nH]c(=S)n2C[C@@H](O)CN)c(OC)c1 [Example 200, 1-[(2S)-3-amino-2-hydroxypropyl]-6-(2,4-dimethoxyphenyl)-2-thioxo-2,3-dihydropyrimidin-4(1H)-one trifluoroacetate] | 4930 1/s per M |
| NCCn1c(-c2ccc3c(c2)CCO3)cc(=O)[nH]c1=S [Example 14, 1-(2-aminoethyl)-6-(2,3-dihydro-1-benzofuran-5-yl)-2-thioxo-2,3-dihydropyrimidin-4(1H)-one hydrochloride] | 5310 1/s per M |
| CCOC(=O)CCn1c(-c2ccc(OC)cc2OC)cc(=O)[nH]c1=S [Example 240, ethyl 3-[6-(2,4-dimethoxyphenyl)-4-oxo-2-thioxo-3,4-dihydropyrimidin-1(2H)-yl]propanoate] | 7070 1/s per M |
| COc1ccc(-c2cc(=O)[nH]c(=S)n2Cc2ncccn2)c(OC)c1 [Example 234, 6-(2,4-dimethoxyphenyl)-1-(pyrimidin-2-ylmethyl)-2-thioxo-2,3-dihydropyrimidin-4(1H)-one] | 3060 1/s per M |
| COc1ccc(-c2cc(=O)[nH]c(=S)n2Cc2ccncc2)c(OC)c1 [Example 232, 6-(2,4-dimethoxyphenyl)-1-(pyridin-4-ylmethyl)-2-thioxo-2,3-dihydropyrimidin-4(1H)-one] | 4520 1/s per M |
| O=c1cc(-c2cccc3ccccc23)n(CCO)c(=S)[nH]1 [Example 162, 1-(2-hydroxyethyl)-6-(1-naphthyl)-2-thioxo-2,3-dihydropyrimidin-4(1H)-one] | 8950 1/s per M |
| NCCCn1c(-c2n[nH]c3ccccc23)cc(=O)[nH]c1=S [Example 32, 1-(3-aminopropyl)-6-(1H-indazol-3-yl)-2-thioxo-2,3-dihydropyrimidin-4(1H)-one formate] | 2120 1/s per M |
| COCCn1c(-c2ccc3ccccc3c2)cc(=O)[nH]c1=S [Example 276, 1-(2-methoxyethyl)-6-(2-naphthyl)-2-thioxo-2,3-dihydropyrimidin-4(1H)-one] | 6710 1/s per M |

| SMILES | MPO kinact/Ki |
| --- | --- |
| COc1ccc(-c2cc(=O)[nH]c(=S)n2CC(C)C(N)=O)c(OC)c1 (centres unmarked) [Example 217, 3-[6-(2,4-dimethoxyphenyl)-4-oxo-2-thioxo-3,4-dihydropyrimidin-1(2H)-yl]-2-methylpropanamide] | 3940 1/s per M |
| O=c1cc(-c2ccccc2OCCO)n(CCO)c(=S)[nH]1 [Example 168, 6-[2-(2-hydroxyethoxy)phenyl]-1-(2-hydroxyethyl)-2-thioxo-2,3-dihydropyrimidin-4(1H)-one] | 8890 1/s per M |
| COc1ccc(-c2cc(=O)[nH]c(=S)n2CCNC2=NCCN2)c(OC)c1 [Example 250, 1-[2-(4,5-dihydro-1H-imidazol-2-ylamino)ethyl]-6-(2,4-dimethoxyphenyl)-2-thioxo-2,3-dihydropyrimidin-4(1H)-one] | 7510 1/s per M |
| COc1ccc(-c2cc(=O)[nH]c(=S)n2CC2(O)CCNCC2)c(OC)c1 [Example 252, 6-(2,4-dimethoxyphenyl)-1-[(4-hydroxypiperidin-4-yl)methyl]-2-thioxo-2,3-dihydropyrimidin-4(1H)-one hydrochloride] | 2480 1/s per M |
| COc1ccc(-c2cc(=O)[nH]c(=S)n2CCNC(=O)OC(C)(C)C)c(OC)c1 [Example 5, tert-butyl 2-(6-(2,4-dimethoxyphenyl)-4-oxo-2-thioxo-3,4-dihydropyrimidin-1(2H)-yl)ethylcarbamate] | 1280 1/s per M |
| COc1ccc(-c2cc(=O)[nH]c(=S)n2Cc2ncn[nH]2)c(OC)c1 [Example 209, 6-(2,4-dimethoxyphenyl)-2-thioxo-1-(1H-1,2,4-triazol-5-ylmethyl)-2,3-dihydropyrimidin-4(1H)-one] | 4360 1/s per M |
| COCCn1c(-c2cc3ccccc3[nH]2)cc(=O)[nH]c1=S [Example 302, 6-(1H-indol-2-yl)-1-(2-methoxyethyl) 2-thioxo-2,3-dihydropyrimidin-4(1H)-one] | 3630 1/s per M |
| COCCn1c(-c2ccc(N(C)C)nc2)cc(=O)[nH]c1=S [Example 165, 6-[6-(dimethylamino)pyridin-3-yl]-1-(2-methoxyethyl)-2-thioxo-2,3-dihydropyrimidin-4(1H)-one] | 1280 1/s per M |
| CCOc1ccccc1-c1cc(=O)[nH]c(=S)n1CCOC [Example 310, 6-(2-ethoxyphenyl)-1-(2-methoxyethyl)-2-thioxo-2,3-dihydropyrimidin-4(1H)-one] | 3110 1/s per M |
| COCCn1c(-c2ccc(OC)cc2F)cc(=O)[nH]c1=S [Example 316, 6-(2-fluoro-4-methoxyphenyl)-1-(2-methoxyethyl)-2-thioxo-2,3-dihydropyrimidin-4(1H)-one] | 3060 1/s per M |
| COc1cc(F)ccc1-c1cc(=O)[nH]c(=S)n1CCN [Example 25, 1-(2-aminoethyl)-6-(4-fluoro-2-methoxyphenyl)-2-thioxo-2,3-dihydropyrimidin-4(1H)-one hydrochloride] | 9210 1/s per M |
| COCCn1c(-c2cccc3c2OCCO3)cc(=O)[nH]c1=S [Example 80, 6-(2,3-dihydro-1,4-benzodioxin-5-yl)-1-(2-methoxyethyl)-2-thioxo-2,3-dihydropyrimidin-4(1H)-one] | 4130 1/s per M |
| COc1ccc(-c2cc(=O)[nH]c(=S)n2Cc2ccn[nH]2)c(OC)c1 [Example 207, 6-(2,4-dimethoxyphenyl)-1-(1H-pyrazol-5-ylmethyl)-2-thioxo-2,3-dihydropyrimidin-4(1H)-one] | 2400 1/s per M |
| COc1ccccc1-c1cc(=O)[nH]c(=S)n1CCCN [Example 18, 1-(3-aminopropyl)-6-(2-methoxyphenyl)-2-thioxo-2,3-dihydropyrimidin-4(1H)-one hydrochloride] | 8280 1/s per M |
| O=c1cc(-c2ccc3c(c2)CCO3)n(CCO)c(=S)[nH]1 [Example 15, 6-(2,3-dihydro-1-benzofuran-5-yl)-1-(2-hydroxyethyl)-2-thioxo-2,3-dihydropyrimidin-4(1H)-one] | 5420 1/s per M |

Same assay, conditions: Table 1A, 2 μM H2O2, pH 7.4

| SMILES | MPO kinact/Ki |
| --- | --- |
| NCCNC(=O)Cn1c(-c2ccc(F)cc2OCCO)cc(=O)[nH]c1=S [Example 415, N-(2-aminoethyl)-2-{6-[4-fluoro-2-(2-hydroxyethoxy)phenyl]-4-oxo-2-thioxo-3,4-dihydropyrimidin-1(2H)-yl}acetamide] | 3910 1/s per M |
| NC(=O)Cn1c(-c2ccc3c(c2)OCCO3)cc(=O)[nH]c1=S [Example 358, 2-[6-(2,3-dihydro-1,4-benzodioxin-6-yl)-4-oxo-2-thioxo-3,4-dihydropyrimidin-1(2H)-yl]acetamide] | 1710 1/s per M |
| NCCn1c(-c2ccccc2OC(F)(F)F)cc(=O)[nH]c1=S [Example 382, 1-(2-aminoethyl)-2-thioxo-6-[2-(trifluoromethoxy)phenyl]-2,3-dihydropyrimidin-4(1H)-one] | 2310 1/s per M |
| NCCn1c(-c2ccc3c(c2)OCCO3)cc(=O)[nH]c1=S [Example 357, 1-(2-aminoethyl)-6-(2,3-dihydro-1,4-benzodioxin-6-yl)-2-thioxo-2,3-dihydropyrimidin-4(1H)-one] | 2940 1/s per M |
